Test results taken from PubChem BioAssay AID248 (DTP/NCI, 2004).
Values joined by “and” are separate entries in the source; they are usually repeats but may differ in a detail not shown here. Equal values may be shown once. Toxic doses and inconclusive results are not listed. No stated cut-off is given here; in the data, active means T/C of 150% or more; inactive means T/C below 125%. Square brackets hold non-standard residues; d marks the D form. Peptide text beside a SMILES is read from it. * marks the point of attachment. ξ: configuration not given here. ξF = NC(Cc1ccccc1)C(=O)O; Cbz = O=C(OCc1ccccc1)*

System: L1210 leukemia ip in BDF1 mice, survival T/C
Experiment: NCI In Vivo Anticancer Drug Screen. Data for tumor model L1210 Leukemia (intraperitoneal) in B6D2F1 (BDF1) mice
Details: endpoint: mean survival time, higher = longer survival
Outline: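 Read-out is survival time, reported as the treated-group measurement over the vehicle-control measurement.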

[1] = dose: 100.0 mg/kg/injection, schedule: Q01DX009 (ip), vehicle: saline with Tween-80
[2] = dose: 100.0 mg/kg/injection, schedule: Q04DX003 (ip), vehicle: saline with Tween-80
[3] = dose: 200.0 mg/kg/injection, schedule: Q01DX009 (ip), vehicle: saline with Tween-80
[4] = dose: 200.0 mg/kg/injection, schedule: Q04DX003 (ip), vehicle: saline with Tween-80
[5] = dose: 400.0 mg/kg/injection, schedule: Q01DX009 (ip), vehicle: saline with Tween-80
[6] = dose: 400.0 mg/kg/injection, schedule: Q04DX003 (ip), vehicle: saline with Tween-80
[7] = dose: 100.0 mg/kg/injection, schedule: Q01DX009 (ip), vehicle: Klucel (hydroxypropylcellulose) (HPC)
[8] = dose: 100.0 mg/kg/injection, schedule: Q04DX003 (ip), vehicle: Klucel (hydroxypropylcellulose) (HPC)
[9] = dose: 200.0 mg/kg/injection, schedule: Q01DX009 (ip), vehicle: Klucel (hydroxypropylcellulose) (HPC)
[10] = dose: 200.0 mg/kg/injection, schedule: Q04DX003 (ip), vehicle: Klucel (hydroxypropylcellulose) (HPC)
[11] = dose: 400.0 mg/kg/injection, schedule: Q01DX009 (ip), vehicle: Klucel (hydroxypropylcellulose) (HPC)
[12] = dose: 400.0 mg/kg/injection, schedule: Q04DX003 (ip), vehicle: Klucel (hydroxypropylcellulose) (HPC)
[13] = dose: 100.0 mg/kg/injection, schedule: Q04DX003 (ip), vehicle: saline
[14] = dose: 200.0 mg/kg/injection, schedule: Q04DX003 (ip), vehicle: saline
[15] = dose: 50.0 mg/kg/injection, schedule: Q04DX003 (ip), vehicle: Klucel (hydroxypropylcellulose) (HPC)
[16] = dose: 50.0 mg/kg/injection, schedule: Q01DX001 (ip), vehicle: carboxymethylcellulose (CMC)
[17] = dose: 100.0 mg/kg/injection, schedule: Q01DX001 (ip), vehicle: carboxymethylcellulose (CMC)
[18] = dose: 200.0 mg/kg/injection, schedule: Q01DX001 (ip), vehicle: carboxymethylcellulose (CMC)
[19] = dose: 400.0 mg/kg/injection, schedule: Q01DX001 (ip), vehicle: carboxymethylcellulose (CMC)

Measured: T/C

O=C(NCCCBr)Nc1cccc2c1CCCC2
inactive: dose: 50.0 mg/kg/injection, schedule: Q04DX003 (ip), vehicle: saline with Tween-80 95 % of control | [1] 100 % of control | [2] 93 % of control | [3] 97 % of control | [4] 101 % of control | [5] 96 % of control | [6] 95 % of control

CCCCC(CC)C1NC(=O)N(SC(Cl)(Cl)Cl)C1=O (stereo unspecified)
inactive: dose: 12.5 mg/kg/injection, schedule: Q01DX009 (ip), vehicle: saline with Tween-80 103 % of control | dose: 25.0 mg/kg/injection, schedule: Q01DX009 (ip), vehicle: saline with Tween-80 92 % of control | dose: 50.0 mg/kg/injection, schedule: Q01DX009 (ip), vehicle: saline with Tween-80 101 % of control and 106 % of control

Cc1cccc(NC(=O)c2cccc(C(=O)Nc3cccc(C)c3C)c2)c1C
inactive: [7] 96 % of control | [8] 88 % of control | [9] 100 % of control | [10] 88 % of control | [11] 96 % of control | [12] 93 % of control

N#CCCP(=O)(CCC#N)CCCCCCP(=O)(CCC#N)CCC#N
inactive: [1] 90 % of control | [3] 90 % of control | [5] 89 % of control

COc1ccc(Nc2ccc([N+](=O)[O-])cc2[N+](=O)[O-])cc1
inactive: [2] 96 % of control | [4] 94 % of control | [6] 91 % of control

COc1ccc(C(O)(c2ccccc2)C(OC(=O)CCl)c2ccccc2)cc1 (stereo unspecified)
inactive: [3] 90 % of control

NC(=O)/C=C/c1c[nH]c2nccnc12
inactive: dose: 1.56 mg/kg/injection, schedule: Q01DX009 (ip), vehicle: water 100 % of control | dose: 3.12 mg/kg/injection, schedule: Q01DX009 (ip), vehicle: water 95 % of control | dose: 6.25 mg/kg/injection, schedule: Q01DX009 (ip), vehicle: water 100 % of control | dose: 12.5 mg/kg/injection, schedule: Q01DX009 (ip), vehicle: water 103 % of control | dose: 25.0 mg/kg/injection, schedule: Q01DX009 (ip), vehicle: water 86 % of control and 90 % of control

CC(=O)Oc1cn(Cc2ccccc2)c2c1C(=O)CC(C)C2 (stereo unspecified)
inactive: dose: 50.0 mg/kg/injection, schedule: Q04DX002 (ip), vehicle: Klucel (hydroxypropylcellulose) (HPC) 108 % of control | dose: 100.0 mg/kg/injection, schedule: Q04DX002 (ip), vehicle: Klucel (hydroxypropylcellulose) (HPC) 94 % of control | dose: 200.0 mg/kg/injection, schedule: Q04DX002 (ip), vehicle: Klucel (hydroxypropylcellulose) (HPC) 102 % of control

CC(=O)CCCC1C(=O)N(c2ccccc2)N(c2ccccc2)C1=O
inactive: [8] 102 % of control | [10] 101 % of control | [12] 96 % of control

Cc1ccc(S(=O)(=O)C[n+]2cc(C)cc(C)c2)cc1
inactive: [13] 95 % of control | [14] 103 % of control

O=C(C1=NNC(c2ccccc2)C1C(=O)c1ccccc1)c1ccccc1 (stereo unspecified)
inactive: dose: 100.0 mg/kg/injection, schedule: Q01DX001 (ip), vehicle: steriod suspending solution 93 % of control | dose: 200.0 mg/kg/injection, schedule: Q01DX001 (ip), vehicle: steriod suspending solution 110 % of control | dose: 400.0 mg/kg/injection, schedule: Q01DX001 (ip), vehicle: steriod suspending solution 101 % of control

O=NC1C(Cl)C2CC1C1C(Br)C(Br)CC21 (stereo unspecified)
inactive: dose: 12.5 mg/kg/injection, schedule: Q04DX003 (ip), vehicle: Klucel (hydroxypropylcellulose) (HPC) 100 % of control | dose: 25.0 mg/kg/injection, schedule: Q01DX009 (ip), vehicle: Klucel (hydroxypropylcellulose) (HPC) 93 % of control | dose: 25.0 mg/kg/injection, schedule: Q04DX003 (ip), vehicle: Klucel (hydroxypropylcellulose) (HPC) 102 % of control | dose: 50.0 mg/kg/injection, schedule: Q01DX001 (ip), vehicle: Klucel (hydroxypropylcellulose) (HPC) 95 % of control | dose: 50.0 mg/kg/injection, schedule: Q01DX009 (ip), vehicle: Klucel (hydroxypropylcellulose) (HPC) 93 % of control | [15] 100 % of control | dose: 100.0 mg/kg/injection, schedule: Q01DX001 (ip), vehicle: Klucel (hydroxypropylcellulose) (HPC) 92 % of control | [7] 88 % of control | dose: 150.0 mg/kg/injection, schedule: Q01DX009 (ip), vehicle: saline 90 % of control | dose: 200.0 mg/kg/injection, schedule: Q01DX001 (ip), vehicle: Klucel (hydroxypropylcellulose) (HPC) 89 % of control | dose: 335.0 mg/kg/injection, schedule: Q01DX009 (ip), vehicle: saline 94 % of control

N#CC(C#N)N=Nc1ccc(Cl)cc1Cl
inactive: dose: 2.5 mg/kg/injection, schedule: Q04DX002 (ip), vehicle: Klucel (hydroxypropylcellulose) (HPC) 98 % of control | dose: 5.0 mg/kg/injection, schedule: Q04DX002 (ip), vehicle: Klucel (hydroxypropylcellulose) (HPC) 102 % of control | dose: 10.0 mg/kg/injection, schedule: Q04DX002 (ip), vehicle: Klucel (hydroxypropylcellulose) (HPC) 98 % of control

O=c1[nH]c2ccccc2cc1Br
inactive: dose: 100.0 mg/kg/injection, schedule: Q01DX001 (ip), vehicle: other 96 % of control | dose: 200.0 mg/kg/injection, schedule: Q01DX001 (ip), vehicle: other 96 % of control | dose: 400.0 mg/kg/injection, schedule: Q01DX001 (ip), vehicle: other 105 % of control

CC1=CCC2(C)CCC(C(C)C)C2(O)CC1 (stereo unspecified)
inactive: dose: 100.0 mg/kg/injection, schedule: Q01DX009 (ip), vehicle: saline 91 % of control | dose: 200.0 mg/kg/injection, schedule: Q01DX009 (ip), vehicle: saline 93 % of control

COC(=O)C(Cc1ccccc1)NC(=O)CNC(=O)OCc1ccccc1 (stereo not drawn) (Cbz-Gly-[ξF]-OMe)
inactive: dose: 100.0 mg/kg/injection, schedule: Q04DX003 (ip), vehicle: other 106 % of control | dose: 200.0 mg/kg/injection, schedule: Q04DX003 (ip), vehicle: other 101 % of control | dose: 400.0 mg/kg/injection, schedule: Q04DX003 (ip), vehicle: other 106 % of control

O=C(O)/C(=C\c1ccc(Cl)cc1)c1cccc2ccccc12
inactive: [15] 92 % of control | [7] 98 % of control | [9] 100 % of control | [10] 87 % of control

CC(=O)Nc1ccc(S(=O)(=O)Nc2ccc(F)cc2)cc1
inactive: [7] 96 % of control | [9] 98 % of control | [11] 102 % of control

CCCC(=O)OCc1cnc(SC)nc1N
inactive: dose: 100.0 mg/kg/injection, schedule: Q01DX001 (ip), vehicle: saline 100 % of control | dose: 200.0 mg/kg/injection, schedule: Q01DX001 (ip), vehicle: saline 97 % of control | dose: 400.0 mg/kg/injection, schedule: Q01DX001 (ip), vehicle: saline 93 % of control

CCCC(O)CN (stereo unspecified)
inactive: [16] 98 % of control | [17] 102 % of control | [18] 104 % of control | [19] 116 % of control

O=C(Nc1ccccc1)C(Br)c1ccccc1 (stereo unspecified)
inactive: [13] 91 % of control | [14] 90 % of control

CN(C)C(=O)Nc1cccc(OC(=O)Nc2ccccc2)c1
inactive: [2] 104 % of control | [4] 96 % of control | [6] 96 % of control

O=c1nc2n(c(=O)[nH]1)CCN2
inactive: [16] 101 % of control | [17] 101 % of control | [18] 104 % of control | [19] 106 % of control

c1ccc(CNc2cccc3c(NCc4ccccc4)cccc23)cc1
inactive: dose: 100.0 mg/kg/injection, schedule: Q01DX001 (ip), vehicle: saline with Tween-80 87 % of control | [1] 86 % of control | [2] 88 % of control | dose: 200.0 mg/kg/injection, schedule: Q01DX001 (ip), vehicle: saline with Tween-80 95 % of control | [3] 93 % of control | dose: 400.0 mg/kg/injection, schedule: Q01DX001 (ip), vehicle: saline with Tween-80 88 % of control | [5] 95 % of control
